Assay results from patent publication US8592428B2 (MSD K. K., priority 2008, dated 2013).
pEC50: −log10 of the molar value. ≈ marks a conversion by molar mass, not a printed value.

Assays:
[1] = biological target: T1, recombinant human liver GK (Homo sapiens, UniProt P35557); experiment: Glucokinase-activating effect (Thio-NADH coupled G6PDH assay); format: biochemical; conditions: final glucose concentration 2.5 mM, 30° C.
T1 construct: made in house; host or cells: E. coli
T1 sequence (P35557 1-466 isoform P35557-2): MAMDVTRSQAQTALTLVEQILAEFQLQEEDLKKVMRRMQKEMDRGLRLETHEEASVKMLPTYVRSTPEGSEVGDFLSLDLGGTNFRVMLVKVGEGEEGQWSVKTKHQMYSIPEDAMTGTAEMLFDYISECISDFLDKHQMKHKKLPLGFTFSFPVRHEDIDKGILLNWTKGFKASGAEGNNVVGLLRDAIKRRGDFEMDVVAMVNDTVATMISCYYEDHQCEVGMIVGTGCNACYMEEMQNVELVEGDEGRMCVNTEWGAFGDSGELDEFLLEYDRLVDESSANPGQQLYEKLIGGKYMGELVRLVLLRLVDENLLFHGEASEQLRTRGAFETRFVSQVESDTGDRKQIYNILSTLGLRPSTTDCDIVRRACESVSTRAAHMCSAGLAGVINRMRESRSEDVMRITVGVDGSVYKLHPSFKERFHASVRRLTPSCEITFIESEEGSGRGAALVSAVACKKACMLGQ
Description: The excellent glucokinase-activating effect of the compounds of formula (I) may be determined by a method described in literature (for example, Diabetes, Vol. 45, pp. 1671-1677, 1996), or in accordance with it.
The glucokinase activity may be determined not by directly measuring glucose-6-phosphate but by measuring the level of Thio-NADH, which is produced when a reporter enzyme, glucose-6-phosphate dehydrogenase produces phosphogluconolactone from glucose-6-phosphate, and based on the level, the degree of glucokinase activation by the compound tested may be determined.
In this assay, used was a recombinant human liver GK, which was expressed by E. coli as a FLAG fusion protein therein and was purified by […] M2 AFFINITY GEL (Sigma).
Using a flat-bottomed 96-well plate, the assay was carried out at 30° C. 69 μl of an assay buffer (25 mM Hepes Buffer/pH=7.2, 2 mM MgCl2, 1 mM ATP, 0.5 mM TNAD, 1 mM dithiothreitol) was put into the plate, and 1 μl of a DMSO solution of the compound or DMSO alone as a control was added thereto. Next, 20 μl of an enzyme mixture (FLAG-GK, 20 U/ml G6PDH) cooled in ice was added to it, and 10 μl of a substrate, 25 mM glucose was added to it, and the reaction was initiated (final glucose concentration=2.5 mM).
After the start of the reaction, the increase in the absorbance at 405 nm was measured for 12 minutes at intervals of 30 seconds, and the increase for the first 5 minutes was used for assessing the compound tested. FLAG-GK was added so that the absorbance increase after 5 minutes in the presence of 1% DMSO could be from 0.04 to 0.06.
The OD level of the DMSO control was set as 100%; and the OD level of the test compound at different concentrations was determined. From the OD level at each concentration, Emax (%) and EC50 (μM) were computed and used as the index of the GK-activating potency of the compound.

[2] = Solubility in water by solution precipitation method (HPLC); format: physicochemical; conditions: water (2% DMSO), kinetic from dmso stock, from 10 mM DMSO solution, 60 minutes stirring at room temperature, compounds of the present invention
Protocol: For solubility in water, the solubility of a compound in water was determined by a solution precipitation method.
For an HPLC system, Agilent HPLC 1100 system was used. […] For a shaker, Microincubator M-36 (Taitec) was used. For a plate, a 96-deep well plate (Nunc. 260252) was used. For a well cap, Pre-Slit Well Cap for 96 Well PP (NALGENE. 276011) was used. For a filtration plate, MultiScreen Solubility (Millipore; MSSLBPC10) was used. For dispensation, an 8-channel electronic multipipette, Biohit Proline (Biohit), and a 96-well automatic pipetting device, Biomeck 2000 (Biomeck) were used. For a reagent used, a pure solvent for DMSO ultraviolet absorption spectrum (Dojindo 349-01025) and water (MiliQ water, manufactured by Millipore).
For a DMSO solution, a sample was prepared with DMSO to be precisely 10 mM.
Precise dispensation of 10 μL of a DMSO solution into each well of a 96-well plate was performed. Following addition of 490 μL of water to each of the wells and plate-sealing with 96-well Cap (Agilent No. 5042-1389), intense stirring processing of the plate was performed for 60 minutes at room temperature on a shaker. Subsequently, 200 μL of a treatment sample was added to a plate for centrifugal filtration, and centrifugal filtration of the sample was performed to obtain a filtrate. A sample solution was made by adding 200 μl, of a 50% aqueous acetonitrile solution to the provided filtrate.
Precise dispensation of 10 μL of a DMSO solution into each well of a 96-well plate was performed.
Detection was performed using a multi-wavelength detector (190-370 nm). For a column, the above-mentioned column was used at 40° C. A flow rate was set at 1.2 ml/min, and an amount of an injected sample at 20 μL. For a moving phase, a 0.1% aqueous phosphoric acid solution as a liquid A and acetonitrile as a liquid B were used to carry out analyses in accordance with a time schedule described below.
For the analyses, the data of UV 275 nm were adopted. […] Using the calibration curve, regression calculation of concentrations in water was carried out from Area of sample solutions (water).

| SMILES | pEC50 [1] | solubility at 60 min [2] | Emax ([1]; OD level of DMSO control = 100%) |
| --- | --- | --- | --- |
| CC(=O)N1CCC[C@@H]1c1cc2[nH]c(-c3cnccn3)cc2cc1Oc1ccc(S(C)(=O)=O)nc1 [Example 2] | 7.05 | > 170 µM | – |
| CC(=O)N1CCC[C@@H]1c1cc2[nH]c(-c3cnc(C)cn3)cc2cc1Oc1ccc(S(C)(=O)=O)nc1 [Example 3, 6-[(R)-1-acetylpyrrolidin-2-yl]-5-(6-methylsulfonylpyridin-3-yloxy)-2-(5-methylpyrazin-2-yl)-1H-indole] | 6.92 | > 170 µM | – |
| CC(=O)N1CCC[C@@H]1c1cc2[nH]c(-c3ccn(C)n3)cc2cc1Oc1ccc(S(C)(=O)=O)nc1 [Example 4, 6-[(R)-1-acetylpyrrolidin-2-yl]-2-(1-methyl-1H-pyrazol-3-yl)-5-(6-methylsulfonylpyridin-3-yloxy)-1H-indole] | 6.74 | > 170 µM | 943% |
| CNC(=O)c1ccc(-c2cc3cc(Oc4ccc(S(C)(=O)=O)nc4)c([C@H]4CCCN4C(C)=O)cc3[nH]2)nc1 [Example 5, 6-[(R)-1-acetylpyrrolidin-2-yl]-2-[5-(N-methylcarbamoyl)pyridin-2-yl]-5-(6-methylsulfonylpyridin-3-yloxy)-1H-indole] | – | 112 µM (≈ 59.5 µg/mL) | – |
| CC(=O)N1CCC[C@@H]1c1cc2[nH]c(-c3cnccn3)cc2cc1Oc1ccc(CO)nc1 [Example 6, 6-[(R)-1-acetylpyrrolidin-2-yl]-5-(6-hydroxymethylpyridin-3-yloxy)-2-(pyrazin-2-yl)-1H-indole] | – | > 170 µM | – |
| CC(=O)N1CCC[C@@H]1c1cc2[nH]c(-c3cnc(C)cn3)cc2cc1Oc1ccc(CO)nc1 [Example 7, 6-[(R)-1-acetylpyrrolidin-2-yl]-5-(6-hydroxymethylpyridin-3-yloxy)-2-(5-methylpyrazin-2-yl)-1H-indole] | 6.92 | > 170 µM | – |
| CC(=O)N1CCC[C@@H]1c1cc2[nH]c(-c3ccc(C(C)(C)O)cn3)cc2cc1Oc1ccc(CO)nc1 [Example 8, 6-[(R)-1-acetylpyrrolidin-2-yl]-2-[5-(1,1-dimethylhydroxymethyl)pyridin-2-yl]-5-(6-hydroxymethylpyridin-3-yloxy)-1H-indole] | – | > 170 µM | – |
| CC(=O)N1CCC[C@@H]1c1cc2[nH]c(-c3ccc(C(C)(C)O)cn3)cc2cc1Oc1ccc(S(C)(=O)=O)nc1 [Example 9, 6-[(R)-1-acetylpyrrolidin-2-yl]-2-[5-(1,1-dimethylhydroxymethyl)pyridin-2-yl]-5-(6-methylsulfonylpyridin-3-yloxy)-1H-indole] | 6.89 | 152 µM (≈ 81.2 µg/mL) | – |
| CC(=O)N1CCC[C@@H]1c1cc2[nH]c(-c3cnc(CO)cn3)cc2cc1Oc1ccc(S(C)(=O)=O)nc1 [Example 10, 6-[(R)-1-acetylpyrrolidin-2-yl]-2-(5-hydroxymethylpyrazin-2-yl)-5-(6-methylsulfonylpyridin-3-yloxy)-1H-indole] | 6.96 | 95.1 µM (≈ 48.3 µg/mL) | – |
| CC(=O)N1CCC[C@@H]1c1cc2[nH]c(-c3ccccn3)cc2cc1Oc1ccc(OCCO)nc1 [Example 11, 6-[(R)-1-acetylpyrrolidin-2-yl]-5-[6-(2-hydroxyethoxy)pyridin-3-yloxy]-2-(pyridin-2-yl)-1H-indole] | – | 48.6 µM (≈ 22.3 µg/mL) | – |
| CC(=O)N1CCC[C@@H]1c1cc2[nH]c(-c3cnccn3)cc2cc1Oc1ccc(OCCO)nc1 [Example 12, 6-[(R)-1-acetylpyrrolidin-2-yl]-5-[6-(2-hydroxyethoxy)pyridin-3-yloxy]-2-(pyrazin-2-yl)-1H-indole] | – | 128 µM (≈ 58.8 µg/mL) | – |
| CC(=O)N1CCC[C@@H]1c1cc2[nH]c(-c3cnc(CO)cn3)cc2cc1Oc1ccc(OCCO)nc1 [Example 14, 6-[(R)-1-acetylpyrrolidin-2-yl]-5-[6-(2-hydroxyethoxy)pyridin-3-yloxy]-2-(5-hydroxymethylpyrazin-2-yl)-1H-indole] | – | > 170 µM | – |
| COCc1ccc(Oc2cc3cc(-c4ccccn4)[nH]c3cc2[C@H]2CCCN2C(C)=O)cn1 [Example 18, 6-[(R)-1-acetylpyrrolidin-2-yl]-5-(6-methoxymethylpyridin-3-yloxy)-2-(pyridin-2-yl)-1H-indole] | – | 133 µM (≈ 58.8 µg/mL) | – |
| CC(=O)N1CCC[C@@H]1c1cc2[nH]c(-c3cnccn3)cc2cc1Oc1ccc(CCO)nc1 [Example 19, 6-[(R)-1-acetylpyrrolidin-2-yl]-5-[6-(2-hydroxyethyl)pyridin-3-yloxy]-2-(pyrazin-2-yl)-1H-indole] | – | > 170 µM | – |
| CC(=O)N1CCC[C@@H]1c1cc2[nH]c(-c3cnccn3)cc2cc1Oc1ccc(C(=O)N2CCC2)nc1 [Example 20, 6-[(R)-1-acetylpyrrolidin-2-yl]-5-[6-(azetidin-1-ylcarbonyl)pyridin-3-yloxy]-2-(pyrazin-2-yl)-1H-indole] | – | 122 µM (≈ 59.1 µg/mL) | – |
| CC(=O)N1CCC[C@@H]1c1cc2[nH]c(-c3cnc(C(C)(C)O)cn3)cc2cc1Oc1ccc(C(=O)N2CCC2)nc1 [Example 21, 6-[(R)-1-acetylpyrrolidin-2-yl]-5-[6-(azetidin-1-ylcarbonyl)pyridin-3-yloxy]-2-[5-(1,1-dimethylhydroxymethyl)pyrazin-2-yl]-1H-indole] | – | > 170 µM | – |
| CC(=O)N1CCC[C@@H]1c1cc2[nH]c(-c3cnc(C(C)(C)O)cn3)cc2cc1Oc1ccc(S(C)(=O)=O)nc1 [Example 22, 6-[(R)-1-acetylpyrrolidin-2-yl]-2-[5-(1,1-dimethylhydroxymethyl)pyrazin-2-yl]-5-(6-methylsulfonylpyridin-3-yloxy)-1H-indole] | – | > 170 µM | – |
| CC(=O)N1CCC[C@@H]1c1cc2[nH]c(-c3ccc(CO)cn3)cc2cc1Oc1ccc(C(=O)N2CCC2)nc1 [Example 23, 6-[(R)-1-acetylpyrrolidin-2-yl]-5-[6-(azetidin-1-ylcarbonyl)pyridin-3-yloxy]-2-(5-hydroxymethylpyridin-2-yl)-1H-indole] | – | 77.6 µM (≈ 39.7 µg/mL) | – |
| CC(=O)N1CCC[C@@H]1c1cc2[nH]c(-c3ccc(C(C)(C)O)cn3)cc2cc1Oc1ccc(C(=O)N2CCC2)nc1 [Example 24, 6-[(R)-1-acetylpyrrolidin-2-yl]-5-[6-(azetidin-1-ylcarbonyl)pyridin-3-yloxy]-2-[5-(1,1-dimethylhydroxymethyl)pyridin-2-yl]-1H-indole] | – | 142 µM (≈ 76.6 µg/mL) | – |
| CC(=O)N1CCC[C@@H]1c1cc2[nH]c(-c3cnccn3)cc2cc1Oc1ccc(C(=O)N(C)C)nc1 [Example 25, 6-[(R)-1-acetylpyrrolidin-2-yl]-5-[6-(N,N-dimethylcarbamoyl)pyridin-3-yloxy]-2-(pyrazin-2-yl)-1H-indole] | – | > 170 µM | – |
